According to publication PMC2653189 (PLoS ONE, 2009):
Where two headings read alike, the source gives them in different places. One block for each compound: values may come before it.

What was measured:
[1] = test system: MDA-MB-231 xenografts; parameters: method as in PMID 17463090; conditions: 5 mg/kg every 2–3 days; cited from earlier work
[2] = target: T1, Stat3 (Homo sapiens, UniProt P40763); test: Stat3/pY-peptide binding assay (SPR, BIAcore); conditions: recombinant Stat3 500 nM; immobilized EGFR Y1068 phosphododecapeptide; 25°C; read-out: SPR IC50, inhibition of Stat3 binding to pY peptide ligand
T1 sequence (P40763 whole entry, species assumed): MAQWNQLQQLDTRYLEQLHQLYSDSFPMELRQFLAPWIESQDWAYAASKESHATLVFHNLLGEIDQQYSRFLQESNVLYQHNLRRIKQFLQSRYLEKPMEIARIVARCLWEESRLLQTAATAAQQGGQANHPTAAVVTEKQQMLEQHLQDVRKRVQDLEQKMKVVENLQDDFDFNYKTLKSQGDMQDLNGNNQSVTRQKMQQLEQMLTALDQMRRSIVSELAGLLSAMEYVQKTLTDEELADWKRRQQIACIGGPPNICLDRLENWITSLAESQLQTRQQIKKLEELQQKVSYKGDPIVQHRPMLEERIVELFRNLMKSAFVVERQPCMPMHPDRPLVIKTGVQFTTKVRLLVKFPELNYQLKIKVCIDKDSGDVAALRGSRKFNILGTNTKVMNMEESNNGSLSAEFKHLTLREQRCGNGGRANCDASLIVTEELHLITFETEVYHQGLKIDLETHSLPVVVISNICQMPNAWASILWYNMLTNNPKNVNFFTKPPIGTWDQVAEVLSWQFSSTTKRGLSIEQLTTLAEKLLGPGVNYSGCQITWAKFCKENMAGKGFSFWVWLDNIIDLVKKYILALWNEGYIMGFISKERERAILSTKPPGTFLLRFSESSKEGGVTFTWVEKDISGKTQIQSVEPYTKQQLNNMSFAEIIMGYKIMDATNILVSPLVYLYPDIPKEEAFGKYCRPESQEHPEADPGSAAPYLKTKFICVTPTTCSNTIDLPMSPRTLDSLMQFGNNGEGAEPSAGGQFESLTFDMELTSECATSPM
Procedure: A control (Stat3 with DMSO but without compound) was run at the beginning and the end of each cycle (40 sample injections) to ensure that the integrity of the sensor chip was maintained throughout the cycle run. The average of the two controls was normalized to 100% and used to evaluate the effect of each compound on Stat3 binding. Responses were normalized by dividing the value at 2 min by the response obtained in the absence of compounds at 2 min and multiplying by 100.

[3] = test system: IL-6-mediated phosphorylation of Stat3; test: Immunoblot of IL-6-mediated Stat3 phosphorylation in HepG2 cells; assay type: cell-based; conditions: Homo sapiens, compound 60 min, then IL-6 30 ng/ml 30 min, read-out: pStat3 IC50, inhibition of IL-6-mediated Stat3 phosphorylation
Procedure: (§1) The human hepatocellular carcinoma cell line (HepG2) was grown in 6-well plates under standard conditions. Cells were pretreated with compounds (0, 1, 3, 10, 30, 100 and 300 µM) for 1 hour then stimulated under optimal conditions with either interleukin-6 (IL-6; 30 ng/ml for 30 min) to activate Stat3 or interferon gamma (IFN-γ; 30 ng/ml for 30 min) to activate Stat1 [28]. Cultures were then harvested and proteins extracted using high-salt buffer, as described. Briefly, extracts were mixed with 2× sodium dodecyl sulfate (SDS) sample buffer (125 mM Tris-HCL pH 6.8; 4% SDS; 20% glycerol; 10% 2-mercaptoethanol) at a 1∶1 ratio and heated for 5 minutes at 100°C. Proteins (20 µg) were separated by 7.5% SDS-PAGE and transferred to polyvinylidene fluoride (PVDF) membrane (Millipore, Waltham, MA) and immunoblotted. Prestained molecular weight markers (BioRad; Hercules, CA) were included in each gel. Membranes were probed serially with antibody against Stat1 pY701 or Stat3 pY705 followed by antibody against Stat1 or Stat3 (Transduction labs, Lexington, KY) then antibody against β–actin (Abcam, Cambridge, MA). Membranes were stripped between antibody probing using Restore™ Western Blot Stripping Buffer (Thermo Fisher Scientific Inc., Waltham, MA) per the manufacturer's instructions. Horseradish peroxidase-conjugated goat-anti-mouse IgG was used as the secondary antibody (Invitrogen Carlsbad, CA) and the membranes were developed with enhanced chemiluminescence (ECL) detection system (Amersham Life Sciences Inc.; Arlington Heights, IL.).
Figure 2 Effect of compounds on ligand-mediated Stat3 and Stat1 phosphorylation. […] Cells were then stimulated with IL-6 (30 ng/ml) for 30 min. Protein extracts of cells were separated by SDS-PAGE, blotted and developed serially with antibodies to pStat3, total Stat3 and β-actin. Blots were stripped between each antibody probing. Band intensities were quantified by densitometry. […] The best-fitting curve was determined using 4-Parameter Logistic Model/Dose Response/XLfit 4.2, IDBS software and was used to calculate the IC50 value (Table 1). […]

[4] = test system: IFN-γ-mediated Stat1 phosphorylation; test: Immunoblot of IFN-γ-mediated Stat1 phosphorylation in HepG2 cells; assay type: cell-based, human; conditions: compound 300 µM 1 hour, IFN-γ 30 ng/ml 30 min
Procedure: as §1
Figure 2 Effect of compounds on ligand-mediated Stat3 and Stat1 phosphorylation. […] Cells were then stimulated with IL-6 (30 ng/ml) for 30 min. Protein extracts of cells were separated by SDS-PAGE, blotted and developed serially with antibodies to pStat3, total Stat3 and β-actin. Blots were stripped between each antibody probing. Band intensities were quantified by densitometry. The value of each pStat3 band was divided by its corresponding total Stat3 band intensity; the results were normalized to the DMSO-treated control value. This value was plotted as a function of the log compound concentration. The best-fitting curve was determined using 4-Parameter Logistic Model/Dose Response/XLfit 4.2, IDBS software and was used to calculate the IC50 value (Table 1). Each panel is representative of 3 or more experiments. In panel G, HepG2 cells were pretreated with DMSO alone or DMSO containing each of the compounds at a concentration of 300 µM for 60 min. Cells were then stimulated with IFN-γ (30 ng/ml) for 30 min. Protein extracts of cells were separated by SDS-PAGE and immunoblotted serially with antibodies to pStat1, total Stat1 and β-actin. Blots were stripped between each immunoblotting. The results shown are representative of 2 or more experiments.

[5] = test system: IL-6-mediated Stat3 nuclear translocation (GFP-Stat3α); test: HTFM nuclear translocation assay in MEF/GFP-Stat3α cells; assay type: cell-based, murine; conditions: Mus musculus, compound 1 hour, then IL-6 200 ng/ml and IL-6sR 250 ng/ml 30 min, read-out: HTFM IC50, inhibition of IL-6-mediated Stat3 nuclear translocation
Procedure: Confocal and high-throughput fluorescence microscopy (HTFM) of MEF/GFP-Stat3α cells were performed as described. Briefly, for confocal fluorescence microscopy, cells were grown in 6-well plates containing a cover slip. For HTFM, cells were seeded into 96-well CC3 plates at a density of 5,000 cells/well using an automated plating system. Cells were cultured under standard conditions until 85–90% confluent. Cells were pre-treated with compound for 1 hour at 37°C then stimulated with IL-6 (200 ng/ml) and IL-6sR (250 ng/ml) for 30 minutes to provide optimal Stat3 activation and nuclear translocation in these cells, as described. Cells were fixed with 4% formaldehyde in PEM Buffer (80 mM Potassium PIPES, pH 6.8, 5 mM EGTA pH 7.0, 2 mM MgCl2) for 30 minutes at 4°C, quenched in 1 mg/ml of NaBH4 (Sigma) in PEM buffer and counterstained for 1 min in 4,6-diamidino-2-phenylindole (DAPI; Sigma; 1 mg/ml) in PEM buffer. Cover slips were examined by confocal fluorescent microscopy. Plates were analyzed by automated HTFM using the Cell Lab IC Image Cytometer (IC100) platform and Cytoshop Version 2.1 analysis software (Beckman Coulter). Nuclear translocation is quantified by using the fraction localized in the nucleus (FLIN) measurement. FLIN values were normalized by subtracting the FLIN for unstimulated cells then dividing this difference by the maximum difference (delta, Δ) in FLIN (FLIN in cells stimulated with IL-6/sIL-6R in the absence of compound minus FLIN of unstimulated cells). This ratio was multiplied by 100 to obtain the percentage of maximum difference in FLIN and was plotted, where indicated, as a function of the log compound concentration. The best-fitting curve and IC50 value were determined using 4-Parameter Logistic Model/Dose Response/XLfit 4.2, IDBS software.
Figure 4 Inhibition of cytoplasmic-to-nuclear translocation of Stat3 assessed by confocal and high-throughput fluorescence microscopy (HTFM). […] Coverslips were examined by confocal fluorescent microscopy using filters to detect GFP (column one), DAPI (column two) or both (merge; column three). In panel B, MEF-GFP-Stat3 cells were grown in 96-well plates with optical glass bottoms and pre-treated with the indicated compound at the indicated concentrations in quadruplicate for 1 hour then stimulated with IL-6 (200 ng/ml) and IL-6sR (250 ng/ml) for 30 minutes. Cells were fixed and the plates were examined by high-throughput microscopy to determine the fluorescence intensity in the nucleus (FLIN). The percent of maximum change (delta, Δ) in FLIN was calculated as described in the Methods and plotted as a function of the log of the compound concentration. […] Best-fit curves were determined using 4-Parameter Logistic Model/Dose Response/XLfit 4.2, IDBS software and were used to calculate the IC50 values (Table 2).

[6] = test system: breast cancer cell lines tested; test: Apoptosis assay, all breast cancer cell lines tested; assay type: cell-based, Human; conditions: any of the breast cancer cell lines tested; data not shown
Procedure: Human breast carcinoma cell lines MDA-MB-468, MDA-MB-231, MBA-MD-435 and MCF7 were kindly provided by Dr. Powel H. Brown (Breast Cancer Center, Baylor College of Medicine). Breast cancer cell line, MDA-MB-453 was kindly provided by Dr. Shou Jiang (Breast Cancer Center, Baylor College of Medicine). All cell lines were grown in DMEM medium supplemented with 10% fetal bovine serum (FBS), 25,000 units penicillin G, 25,000 µg streptomycin, and 131.4 mg L-Glutamine and cultured in the incubator under the condition of 95% air, 5% CO2 at 37°C [33]. Cells were seeded at 2,500 cells/cm^2 into 12-well plates. At 80% confluency, cells were washed with PBS and supplemented with fresh medium containing compound or the topoisomerase I-inhibitor, camptothecin, at 0, 0.1, 0.3, 1, 3, 10, 30, 100, 300 µM. At 24 hours, treatment was terminated by removing the medium from each well. Cells were lysed with cell lysis buffer (600 µl for 30 minutes at 25°C). […] The percent maximum nucleosome level was calculated by dividing the nucleosome level by the maximum nucleosome level achieved in the assay and multiplying by 100. This value was plotted as a function of the log compound concentration and the best-fitting curve and EC50 value determined using 4-Parameter Logistic Model/Dose Response/XLfit 4.2, IDBS software.

[7] = target: T1, Stat3; parameters: method as in PMID 16220982; conditions: fluorescence polarization; read-out: IC50 inhibition of Stat3 binding to pY-peptide; cited from earlier work

Compound: Cc1ccc(S(=O)(=O)OCC(=O)Nc2ccc(C(=O)O)c(O)c2)cc1 [S3I-201]
Xenograft growth [1]: inhibited growth

IC50 [2]: 256 µM
IC50 [3]: 144 µM
IC50 [5]: 150 µM
Compound: CCOc1cc(C=C2C(=O)c3ccccc3C2=O)cc(Cl)c1OCc1cccc(C(=O)O)c1 [Cpd3-2, 3-({2-chloro-4-[(1,3-dioxo-1,3-dihydro-2H-inden-2-ylidene)methyl]-6-ethoxyphenoxy}methyl)benzoic acid]
Block of IFN-γ-stimulated Stat1 phosphorylation [4]: did not
Apoptosis induction (in words) [6]: neither Cpd3-2 nor Cpd3-7 induced apoptosis

Compound: hydrocinnamoyl-Tyr(PO3H2)-Leu-cis-3,4-methanoPro-Gln-NHB
IC50 [7]: 0.125 µM
